From patent EP1905824A1, “A […] AND A METHOD FOR CELL […]” (Olympus Corporation, priority 2005, dated 2006)

Assays:
Format in all cases: cell-based, human
[1] = system: MCF7 cell lines (clones) in which the ERE-GFP reporter gene having a sable GFP as the reporter was stably introduced; assay: GFP protein induction with/without estrogen (E2), stable-GFP reporter clones; conditions: E2 10 nM, two days
[2] = system: ERE-GFP-E10 cell line; assay: Estrogen signal response assessment (GFP expression, fluorescence microscope / flow cytometer); conditions: E2 10 nM, two days; compared with E2-untreated (low GFP expression level)
[3] = system: cell line in which only the pd2EGFP-1 vector having no ERE was stably introduced (pdE2-GFP-4); assay: Estrogen signal response assessment (GFP expression), control cell line without ERE; conditions: E2 10 nM, two days; regardless of E2-treated/untreated
[4] = system: ERE-GFP-E10 cell line; assay: GFP expressing cell counting after addition of E2
[5] = system: ERE-GFP-E10 cell line; assay: MTT assay for living cell counts after addition of E2; conditions: E2 0 to 300 pM; four days; absorbance at 560 nm
[6] = system: breast cancer tissue-derived adipose stromal cell and ERE-GFP-E10 cell; assay: Co-culture of breast cancer tissue-derived adipose stromal cell and ERE-GFP-E10, detection of estrogen signal; set-up: dose or concentration left out as unconfirmed; conditions: testosterone, four days co-culture; compared with no addition of androgen; three breast cancer cases
[7] = E2 3 pM or 1 nM, Day 1 to Day 4, regardless of the amount of E2 added

With `C[C@]12CC[C@@H]3c4ccc(O)cc4CC[C@H]3[C@@H]1CC[C@@H]2O` [E2, 17 β estradiol] the “GFP expression positive cell rate (%) E2-added group” value ([1]; clone #16, E2-free group 85) was 88%, the “GFP expression positive cell rate (%) E2-added group” value ([1]; clone #19, E2-free group 32) was 73% and the “GFP expression positive cell rate (%) E2-added group” value ([1]; clone #21, E2-free group 5) was 8%. For the same molecule, the “GFP expression positive cell rate (%) E2-added group” value ([1]; clone #28, E2-free group 37) was 41%, the “GFP expression positive cell rate (%) E2-added group” value ([1]; clone #29, E2-free group 77) was 83% and the “GFP expression positive cell rate (%) E2-added group” value ([1]; clone #37, E2-free group 83) was 84%. The “GFP expression level when E2-treated” value [2] was “GFP well induced, having a high expression level”, the GFP expression [3] was “no GFP expression” and the “E2 concentration at which GFP expression induction was maximized” value ([4]; E2 0, 1, 3, 10, 30, 100, 300 pM, four days) was 30 pM. The “day from which GFP expression was observed after the addition of E2” value [4, 7] was 1 days, the “day on which GFP expression positive cell count was maximized” value [4, 7] was 2 days and the minimal effective concentration ([4]; Homo sapiens, 96 h, E2 0, 1, 3, 10, 30, 100, 300 pM, four days, read-out: E2 concentration at which a significant level of GFP expression induction was detected) was 3e-06 µM. For the same molecule, the living cell count [5] was “increased dependently on the added E2 concentration”.
In the case of `C[C@]12CC[C@H]3[C@@H](CCC4=CC(=O)CC[C@@]43C)[C@@H]1CC[C@@H]2O` [testosterone], the “GFP positive cell rate in the ERE-GFP-E10 cell” value [6] is reported as “significantly increased”.
